Source: ChEMBL document CHEMBL5055646, “Discovery of novel BTK PROTACs for B-Cell lymphomas” (Eur J Med Chem, 2021)

Legend:
[1] = biological target: T1, Tyrosine-protein kinase BTK (Homo sapiens, UniProt Q06187); test: Inhibition of full length N-terminal GST fusion tagged human BTK expressed in baculovirus expression system using FAM-P2 peptide solution as substrate incubated for 10 mins in presence of ATP by microplate reader assay
[2] = biological target: T1, Tyrosine-protein kinase BTK; test: Inhibition of full length N-terminal GST fusion tagged human BTK expressed in baculovirus expression system at 500 nM using FAM-P2 peptide solution as substrate incubated for 10 mins in presence of ATP by microplate reader assay
[3] = tested on: Protein cereblon/Tyrosine-protein kinase BTK (Homo sapiens), Q06187+Q96SW2 [C481S]; test: Protac activity at BTK C481S mutant/CRBN in human TMD8 cells assessed as maximal BTK degradation measured after 1 hr by Western blot analysis relative to control; type: cell-based
[4] = biological target: T2, Protein cereblon/Tyrosine-protein kinase BTK (Homo sapiens, UniProt Q06187+Q96SW2); test: Protac activity at BTK/CRBN in human JeKo-1 cells assessed as induction of BTK degradation at 100 nM measured after 1 hr by Western blot analysis relative to control; type: cell-based
Target sequence in this assay (Q06187 2-659 limits assumed): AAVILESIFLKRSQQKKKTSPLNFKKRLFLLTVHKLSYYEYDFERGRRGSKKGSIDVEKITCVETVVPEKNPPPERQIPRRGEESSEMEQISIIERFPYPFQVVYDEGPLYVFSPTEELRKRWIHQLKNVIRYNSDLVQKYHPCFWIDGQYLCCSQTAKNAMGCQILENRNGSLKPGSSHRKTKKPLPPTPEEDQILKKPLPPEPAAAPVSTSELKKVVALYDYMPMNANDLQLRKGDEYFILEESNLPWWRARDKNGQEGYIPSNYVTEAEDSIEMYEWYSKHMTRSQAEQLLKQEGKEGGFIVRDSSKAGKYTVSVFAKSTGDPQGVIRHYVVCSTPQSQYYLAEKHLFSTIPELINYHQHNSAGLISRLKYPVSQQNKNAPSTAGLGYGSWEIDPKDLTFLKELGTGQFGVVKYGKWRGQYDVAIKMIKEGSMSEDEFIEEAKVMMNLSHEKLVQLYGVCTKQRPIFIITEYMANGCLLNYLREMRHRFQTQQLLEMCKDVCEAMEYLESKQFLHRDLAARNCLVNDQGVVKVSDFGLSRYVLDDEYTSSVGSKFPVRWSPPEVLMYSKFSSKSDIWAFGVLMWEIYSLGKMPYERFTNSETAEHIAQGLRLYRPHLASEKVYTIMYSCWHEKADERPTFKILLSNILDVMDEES
Target sequence in this assay (Q96SW2 whole entry partner): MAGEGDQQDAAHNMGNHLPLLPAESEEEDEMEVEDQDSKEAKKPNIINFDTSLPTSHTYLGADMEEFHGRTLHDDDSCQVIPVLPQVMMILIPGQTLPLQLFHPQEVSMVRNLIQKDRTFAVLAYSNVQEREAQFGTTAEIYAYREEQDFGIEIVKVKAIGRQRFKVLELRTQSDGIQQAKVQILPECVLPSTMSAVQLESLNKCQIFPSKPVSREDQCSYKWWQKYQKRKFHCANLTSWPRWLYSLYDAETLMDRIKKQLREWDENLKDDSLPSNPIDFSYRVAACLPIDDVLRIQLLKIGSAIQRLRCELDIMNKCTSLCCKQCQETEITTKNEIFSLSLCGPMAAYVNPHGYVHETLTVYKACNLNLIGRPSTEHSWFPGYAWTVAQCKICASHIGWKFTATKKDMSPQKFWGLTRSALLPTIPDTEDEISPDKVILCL

TMD8 [5] = test: cells; conditions: Homo sapiens, TMD8, 72 h
[6] = biological target: Protein cereblon/Tyrosine-protein kinase BTK (Homo sapiens, UniProt Q06187+Q96SW2, C481S); test: Protac activity at BTK C481S mutant/CRBN in human TMD8 cells assessed as induction of BTK degradation measured after 1 hr by Western blot analysis; type: cell-based
[7] = biological target: T1, Tyrosine-protein kinase BTK; test: Inhibition of full length N-terminal GST fusion tagged human BTK expressed in baculovirus expression system at 50 nM using FAM-P2 peptide solution as substrate incubated for 10 mins in presence of ATP by microplate reader assay relative to control
[8] = biological target: T2, Protein cereblon/Tyrosine-protein kinase BTK; test: Protac activity at BTK/CRBN in human JeKo-1 cells assessed as induction of BTK degradation measured after 1 hr by Western blot analysis; type: cell-based
Target sequence in this assay (Q06187 whole entry): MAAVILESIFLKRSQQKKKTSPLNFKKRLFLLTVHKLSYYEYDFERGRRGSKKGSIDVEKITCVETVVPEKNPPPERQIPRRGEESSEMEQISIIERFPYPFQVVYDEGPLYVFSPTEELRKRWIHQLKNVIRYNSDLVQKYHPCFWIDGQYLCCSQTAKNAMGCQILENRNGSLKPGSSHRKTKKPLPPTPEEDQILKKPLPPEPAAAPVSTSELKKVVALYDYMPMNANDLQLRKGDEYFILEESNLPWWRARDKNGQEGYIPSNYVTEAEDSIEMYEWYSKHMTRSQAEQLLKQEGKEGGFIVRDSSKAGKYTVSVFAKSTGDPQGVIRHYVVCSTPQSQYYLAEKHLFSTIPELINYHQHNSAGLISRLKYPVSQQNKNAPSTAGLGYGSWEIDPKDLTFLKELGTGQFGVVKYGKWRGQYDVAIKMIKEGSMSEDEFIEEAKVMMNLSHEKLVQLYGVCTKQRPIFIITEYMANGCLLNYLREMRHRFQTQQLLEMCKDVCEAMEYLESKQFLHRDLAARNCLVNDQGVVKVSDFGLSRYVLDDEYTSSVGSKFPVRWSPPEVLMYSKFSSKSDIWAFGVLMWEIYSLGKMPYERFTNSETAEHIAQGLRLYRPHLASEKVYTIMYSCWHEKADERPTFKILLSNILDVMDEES
Target sequence in this assay (Q96SW2 whole entry): as the sequence (Q96SW2 whole entry partner) above

TMD8 [9] = test: cells; conditions: Homo sapiens, TMD8, 72 h; remark: listed apart in the source
[10] = biological target: T2, Protein cereblon/Tyrosine-protein kinase BTK; test: Protac activity at BTK/CRBN in human JeKo-1 cells assessed as maximal BTK degradation measured after 1 hr by Western blot analysis relative to control; type: cell-based
Target sequence in this assay (Q06187 2-659 limits assumed): as the sequence (Q06187 2-659 limits assumed) above
Target sequence in this assay (Q96SW2 whole entry partner): as the sequence (Q96SW2 whole entry partner) above

[11] = Apparent permeability across basolateral to apical side in human Caco-2 cells; type: ADME, cell-based
[12] = Apparent permeability across apical to basolateral side in human Caco-2 cells; type: ADME, cell-based
[13] = Efflux ratio of apparent permeability from basolateral to apical side over apical to basolateral side in human Caco-2 cells; type: ADME, cell-based
[14] = Half life in human plasma; type: ADME, cell-free

T1 sequence (Q06187 whole entry, the tested form may be a part): as the sequence (Q06187 whole entry) above
Protein cereblon/Tyrosine-protein kinase BTK (Homo sapiens, UniProt Q06187+Q96SW2, C481S), sequence (Q06187 2-659 C481S limits assumed, stated change not applied): as the sequence (Q06187 2-659 limits assumed) above, with C480S counted along it
Protein cereblon/Tyrosine-protein kinase BTK (Homo sapiens, UniProt Q06187+Q96SW2, C481S), sequence (Q96SW2 whole entry, stated change not applied, the tested form may be a part): as the sequence (Q96SW2 whole entry partner) above

Row | Compound | IC50 [1] [µM] | inhibition [2] [%] | inhibition [7] [%] | %max [3] [%] | Activity [4] [%] | IC50 (TMD8 [5]) [µM] | DC50 [6] [µM] | DC50 [8] [µM] | IC50 (TMD8 [9]) [µM] | %max [10] [%] | Papp B→A [11] [nm/s] | Papp A→B [12] [nm/s] | efflux ratio [13] | half-life [14] [h]
1 | O=C(CNc1ncnc2[nH]cc(C(=O)c3ccc(Oc4ccccc4)cc3Cl)c12)NCCOCCOCCOCCOCCOCCOCCNc1cccc2c1C(=O)N(C1CCC(=O)NC1=O)C2=O (stereo not drawn) | 1.39 | 42.5 | 10 | 84.8 | 78.7 | 0.75 | 0.0523 | 0.0083 | 0.104 | 92.4 |  |  |  | 
2 | O=C(CNc1ncnc2[nH]cc(C(=O)c3ccc(Oc4ccccc4)cc3Cl)c12)NCCCCNc1cccc2c1C(=O)N(C1CCC(=O)NC1=O)C2=O (stereo not drawn) |  | 9.3 | 1.8 |  | 24.9 |  |  |  |  |  |  |  |  | 
3 | CCOC(=O)CNc1ncnc2[nH]cc(C(=O)c3ccc(Oc4ccccc4)cc3Cl)c12 | 5.97 | 10.9 | 4.9 |  |  |  |  |  |  |  |  |  |  | 
4 | O=C(CNc1ncnc2[nH]cc(C(=O)c3ccc(Oc4ccccc4)cc3Cl)c12)NCCOCCOCCOCCOCCNc1cccc2c1C(=O)N(C1CCC(=O)NC1=O)C2=O (stereo not drawn) | 2.2 | 35.6 | 5.6 | 68.6 | 55.6 |  | 0.0527 | 0.0094 |  | 66.5 |  |  |  | 
5 | O=C1CCC(N2C(=O)c3cccc(NCCOCCOCCOCCOCCOCCNC(=O)N[C@H]4CC[C@@H](Nc5ncnc6[nH]cc(C(=O)c7ccc(Oc8ccccc8)cc7Cl)c56)CC4)c3C2=O)C(=O)N1 (stereo partly drawn) | 0.0564 | 90 | 58.4 | 90.7 | 93.7 | 0.254 | 0.0429 | 0.0419 | 0.0457 | 93 | 75 | < 53 | > 1.4 | 3.55
6 | O=C1CCC(N2C(=O)c3cccc(NCCOCCOCCOCCOCCNC(=O)N[C@H]4CC[C@@H](Nc5ncnc6[nH]cc(C(=O)c7ccc(Oc8ccccc8)cc7Cl)c56)CC4)c3C2=O)C(=O)N1 (stereo partly drawn) | 0.0469 | 74.9 | 32.6 | 83.5 | 88.8 | 0.29 | 0.0379 | 0.0121 | 0.0395 | 78 |  |  |  | 
7 | O=C(CNc1ncnc2[nH]cc(C(=O)c3ccc(Oc4ccccc4)cc3Cl)c12)NCCOCCOCCOCCNc1cccc2c1C(=O)N(C1CCC(=O)NC1=O)C2=O (stereo not drawn) | 1.93 | 21.6 | 8.6 |  | 56.2 |  |  | 0.0285 |  | 67.1 |  |  |  | 
8 | O=C1CCC(N2C(=O)c3cccc(NCCOCCOCCOCCNC(=O)N[C@H]4CC[C@@H](Nc5ncnc6[nH]cc(C(=O)c7ccc(Oc8ccccc8)cc7Cl)c56)CC4)c3C2=O)C(=O)N1 (stereo partly drawn) | 0.0223 | 95.2 | 73.5 | 84.3 | 44.1 |  | 0.0301 | 0.0323 |  | 76.9 |  |  |  | 
9 | O=C(CNc1ncnc2[nH]cc(C(=O)c3ccc(Oc4ccccc4)cc3Cl)c12)NCCOCCOCCOCCOCCOCCNc1cccc2c1C(=O)N(C1CCC(=O)NC1=O)C2=O (stereo not drawn) | 1.21 | 35.5 | 5.9 | 88.4 | 64.2 | 1.69 | 0.0804 | 0.0081 | 0.0633 | 72.4 |  |  |  | 5.34

More lines, main results first:

Row | IC50 [1] [µM] | inhibition [2] [%] | inhibition [7] [%] | Compound | %max [3] [%] | Activity [4] [%] | IC50 (TMD8 [5]) [µM] | DC50 [6] [µM] | DC50 [8] [µM] | IC50 (TMD8 [9]) [µM] | %max [10] [%] | Papp B→A [11] [nm/s] | Papp A→B [12] [nm/s] | efflux ratio [13] | half-life [14] [h]
10 | 3.78 | 21.5 | 7.5 | O=C(CNc1ncnc2[nH]cc(C(=O)c3ccc(Oc4ccccc4)cc3Cl)c12)NCCOCCOCCNc1cccc2c1C(=O)N(C1CCC(=O)NC1=O)C2=O (stereo not drawn) |  | 33 |  |  |  |  |  |  |  |  | 
11 | 0.0043 | 99.5 | 94.2 | N[C@H]1CC[C@@H](Nc2ncnc3[nH]cc(C(=O)c4ccc(Oc5ccccc5)cc4Cl)c23)CC1 |  |  |  |  |  |  |  |  |  |  | 
12 | 0.0814 | 85.1 | 44.2 | O=C(O)CNc1ncnc2[nH]cc(C(=O)c3ccc(Oc4ccccc4)cc3Cl)c12 |  |  |  |  |  |  |  |  |  |  | 
13 |  | 10.9 | 2.4 | O=C(CNc1ncnc2[nH]cc(C(=O)c3ccc(Oc4ccccc4)cc3Cl)c12)NCCNc1cccc2c1C(=O)N(C1CCC(=O)NC1=O)C2=O (stereo not drawn) |  |  |  |  |  |  |  |  |  |  | 
14 | 0.023 | 96.2 | 75 | O=C1CCC(N2C(=O)c3cccc(NCCCCNC(=O)N[C@H]4CC[C@@H](Nc5ncnc6[nH]cc(C(=O)c7ccc(Oc8ccccc8)cc7Cl)c56)CC4)c3C2=O)C(=O)N1 (stereo partly drawn) |  | 6.8 |  |  |  |  |  |  |  |  | 
15 | 0.0252 |  |  | CCNC(=O)N[C@H]1CC[C@@H](Nc2ncnc3[nH]cc(C(=O)c4ccc(Oc5ccccc5)cc4Cl)c23)CC1 |  |  |  |  |  |  |  |  |  |  | 
16 | 0.407 |  |  | CCNC(=O)CNc1ncnc2[nH]cc(C(=O)c3ccc(Oc4ccccc4)cc3Cl)c12 |  |  |  |  |  |  |  |  |  |  | 
17 | 0.0155 | 97.4 | 82.1 | O=C1CCC(N2C(=O)c3cccc(NCCOCCOCCNC(=O)N[C@H]4CC[C@@H](Nc5ncnc6[nH]cc(C(=O)c7ccc(Oc8ccccc8)cc7Cl)c56)CC4)c3C2=O)C(=O)N1 (stereo partly drawn) |  | 22.8 |  |  |  |  |  |  |  |  | 
18 |  | 39 | 7 | O=C(CNc1ncnc2[nH]cc(C(=O)c3ccc(Oc4ccccc4)cc3Cl)c12)NCCOCCOCCOCCOCCOCCOCCOCCNc1cccc2c1C(=O)N(C1CCC(=O)NC1=O)C2=O (stereo not drawn) |  | 14.7 |  |  |  |  |  |  |  |  | 
